This note sets out measurements from publication PMC6858497 (The Journal of physiology, 2019).

Assay [1] concerns NMDAR-EPSCs in hippocampal CA1 pyramidal cells. In words: Whole-cell patch-clamp of NMDAR-EPSCs in acute hippocampal slices. It counts as cell-based, mouse. As to conditions: for NMDAR-EPSC peak amplitude, % of baseline: 10 μM, +40 mV, P21–28 slices; for effect on EPSC decay time: treatment versus baseline, paired t test, 10 μM (spermine 100 μM).
The target of assay [2] is GluN1–1a/2BC1/2DC2 (Rattus norvegicus, UniProt P35439+Q00959+Q00960+Q62645, A876H/F846L/G856D/H848F/K857R/M851T/M860L/Q845K/R869K/V861L/V866F). In words: Two-electrode voltage-clamp recordings, Xenopus oocytes. Format: cell-based. The following applies: for nH (Hill coefficient): inhibition; for Relative Imin: fitted minimal response relative to control.
Assay [3] deals with GluN1–1a/2B (Rattus norvegicus, UniProt P35439+Q00960). The description is as above. Format: cell-based. As to conditions: for nH (Hill coefficient): inhibition.
GluN1–1a/2B, sequence (Q00960 27-1482, other chains not shown): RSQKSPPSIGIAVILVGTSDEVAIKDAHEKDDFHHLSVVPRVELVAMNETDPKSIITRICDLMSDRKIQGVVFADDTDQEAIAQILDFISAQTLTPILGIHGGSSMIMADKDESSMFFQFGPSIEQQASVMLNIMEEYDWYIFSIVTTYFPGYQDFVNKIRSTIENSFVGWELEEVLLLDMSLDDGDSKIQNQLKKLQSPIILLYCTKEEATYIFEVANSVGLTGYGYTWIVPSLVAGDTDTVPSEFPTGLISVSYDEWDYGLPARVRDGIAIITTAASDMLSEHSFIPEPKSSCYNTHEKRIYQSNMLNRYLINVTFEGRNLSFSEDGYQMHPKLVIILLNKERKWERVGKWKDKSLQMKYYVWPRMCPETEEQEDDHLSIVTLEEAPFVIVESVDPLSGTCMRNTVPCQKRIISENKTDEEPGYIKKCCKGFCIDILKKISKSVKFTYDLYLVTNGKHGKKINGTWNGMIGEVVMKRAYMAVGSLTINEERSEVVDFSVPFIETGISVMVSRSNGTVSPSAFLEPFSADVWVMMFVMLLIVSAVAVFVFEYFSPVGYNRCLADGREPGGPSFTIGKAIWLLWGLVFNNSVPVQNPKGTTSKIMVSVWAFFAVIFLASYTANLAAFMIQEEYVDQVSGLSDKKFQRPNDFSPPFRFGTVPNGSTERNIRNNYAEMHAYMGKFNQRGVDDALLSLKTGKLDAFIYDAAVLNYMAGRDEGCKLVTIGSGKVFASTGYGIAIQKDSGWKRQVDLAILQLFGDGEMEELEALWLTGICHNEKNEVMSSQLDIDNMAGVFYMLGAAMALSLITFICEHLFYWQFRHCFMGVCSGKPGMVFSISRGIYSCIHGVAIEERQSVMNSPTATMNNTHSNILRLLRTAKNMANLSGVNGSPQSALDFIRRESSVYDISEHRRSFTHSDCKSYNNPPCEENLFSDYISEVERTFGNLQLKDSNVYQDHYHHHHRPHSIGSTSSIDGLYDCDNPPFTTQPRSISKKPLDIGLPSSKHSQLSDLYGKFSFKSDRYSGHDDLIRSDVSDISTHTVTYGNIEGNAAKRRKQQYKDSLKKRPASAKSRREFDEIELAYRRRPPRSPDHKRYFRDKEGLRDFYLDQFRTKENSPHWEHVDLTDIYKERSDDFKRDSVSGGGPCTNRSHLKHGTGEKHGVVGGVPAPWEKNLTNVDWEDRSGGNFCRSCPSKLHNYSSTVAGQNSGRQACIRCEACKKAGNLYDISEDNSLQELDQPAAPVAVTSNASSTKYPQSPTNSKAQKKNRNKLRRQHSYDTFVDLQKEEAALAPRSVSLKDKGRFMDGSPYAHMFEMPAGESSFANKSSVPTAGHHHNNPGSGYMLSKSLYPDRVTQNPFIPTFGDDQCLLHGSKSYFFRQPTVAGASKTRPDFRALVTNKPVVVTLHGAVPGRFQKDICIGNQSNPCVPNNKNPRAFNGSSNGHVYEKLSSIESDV
Assay [4] relates to NMDAR-EPSCs in hippocampal interneurons (CA1 s.r./s.l.m.). The experiment in a line: Whole-cell patch-clamp of NMDAR-EPSCs in acute hippocampal slices. Format: cell-based, mouse. The following applies: for NMDAR-EPSC peak amplitude, % of baseline: 10 μM, +40 mV, P21–28 slices.
For assay [5], the target named is GluN1–1a/2D (Rattus norvegicus, UniProt P35439+Q62645). The experiment in a line: Two-electrode voltage-clamp recordings, Xenopus oocytes. It counts as cell-based. As to conditions: for nH (Hill coefficient): inhibition.
GluN1–1a/2D, sequence (Q62645 28-1323, other chains not shown): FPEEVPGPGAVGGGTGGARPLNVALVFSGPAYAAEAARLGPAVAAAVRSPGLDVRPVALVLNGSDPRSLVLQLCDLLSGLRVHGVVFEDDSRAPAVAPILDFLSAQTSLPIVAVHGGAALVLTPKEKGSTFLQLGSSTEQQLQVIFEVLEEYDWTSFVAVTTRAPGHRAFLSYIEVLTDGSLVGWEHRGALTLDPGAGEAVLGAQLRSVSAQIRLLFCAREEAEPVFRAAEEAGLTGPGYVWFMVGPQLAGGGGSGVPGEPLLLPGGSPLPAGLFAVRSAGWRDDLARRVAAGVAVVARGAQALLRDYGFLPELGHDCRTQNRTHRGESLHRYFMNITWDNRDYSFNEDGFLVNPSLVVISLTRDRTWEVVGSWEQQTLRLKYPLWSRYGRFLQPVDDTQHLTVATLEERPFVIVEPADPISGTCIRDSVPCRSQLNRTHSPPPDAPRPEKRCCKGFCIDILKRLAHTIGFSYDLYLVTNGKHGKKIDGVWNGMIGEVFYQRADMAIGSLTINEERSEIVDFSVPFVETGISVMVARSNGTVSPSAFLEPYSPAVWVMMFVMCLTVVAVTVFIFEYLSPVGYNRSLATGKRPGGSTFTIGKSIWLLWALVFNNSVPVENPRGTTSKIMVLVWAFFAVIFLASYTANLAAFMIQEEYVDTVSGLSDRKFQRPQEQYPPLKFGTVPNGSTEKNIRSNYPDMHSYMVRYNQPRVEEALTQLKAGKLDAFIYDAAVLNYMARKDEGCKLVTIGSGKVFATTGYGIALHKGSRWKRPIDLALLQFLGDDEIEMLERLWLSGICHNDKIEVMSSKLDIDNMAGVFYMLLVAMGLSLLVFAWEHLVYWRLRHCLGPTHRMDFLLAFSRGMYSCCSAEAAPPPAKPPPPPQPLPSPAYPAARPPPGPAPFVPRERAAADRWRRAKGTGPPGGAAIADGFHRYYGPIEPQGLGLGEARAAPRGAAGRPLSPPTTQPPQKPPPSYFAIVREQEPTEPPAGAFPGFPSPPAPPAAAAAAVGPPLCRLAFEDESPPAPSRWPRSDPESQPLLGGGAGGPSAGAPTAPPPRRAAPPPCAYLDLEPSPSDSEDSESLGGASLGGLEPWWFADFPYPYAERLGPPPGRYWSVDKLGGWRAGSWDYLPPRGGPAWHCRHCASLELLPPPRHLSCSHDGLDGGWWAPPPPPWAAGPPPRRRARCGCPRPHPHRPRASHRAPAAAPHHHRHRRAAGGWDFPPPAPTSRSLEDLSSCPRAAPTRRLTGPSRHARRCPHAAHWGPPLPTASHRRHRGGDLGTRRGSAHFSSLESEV
Where [6] appears, read: fitted minimal response relative to control, isoform 1a.
Setting [7] is: isoform 1a, 300 μM glutamate plus 100 μM glycine.
The mark [8] stands for this setting: Mg2+ block, holding potential −40 mV.
Setting [9] is: Mg2+ block, holding potential −60 mV.
The mark [10] stands for this setting: Mg2+ block, holding potential −80 mV.
[11] abbreviates: Mg2+ block, holding potential −100 mV.
Setting [12] is: Woodhull model, current-voltage relationship with 0.1 mM Mg2+.
Setting [13] is: IC50, channel block, −20 mV, + 1 mM Mg2+.
[14] abbreviates: IC50, channel block, −20 mV, control (absence of Mg2+).
[15] abbreviates: IC50, channel block, −40 mV, + 1 mM Mg2+.
Where [16] appears, read: IC50, channel block, −40 mV, control (absence of Mg2+).
Setting [17] is: IC50, channel block, −60 mV, + 1 mM Mg2+.
The mark [18] stands for this setting: IC50, channel block, −60 mV, control (absence of Mg2+).
[19] abbreviates: channel block, −20 mV, + 1 mM Mg2+.
The mark [20] stands for this setting: channel block, −20 mV, control (absence of Mg2+).
The mark [21] stands for this setting: channel block, −40 mV, + 1 mM Mg2+.
Setting [22] is: channel block, −40 mV, control (absence of Mg2+).
Where [23] appears, read: channel block, −60 mV, + 1 mM Mg2+.
The mark [24] stands for this setting: channel block, −60 mV, control (absence of Mg2+).

Where “and” joins values, the source holds several entries; their conditions need not be identical. Equal values may be shown once.

As to `C[C@@H]([C@@H](O)c1ccc(O)cc1)N1CCC(O)(c2ccccc2)CC1` [CP-101,606], the “NMDAR-EPSC peak amplitude, % of baseline” value was 50 ± 3 % of baseline in assay [1] and 30 ± 3 % of baseline in assay [4]. Moreover, the “effect on EPSC decay time” value is given as “significantly accelerated” in assay [1] and “unchanged” in assay [4] (treatment versus baseline, paired t test, 10 μM (spermine 100 μM)). In addition, the “nH (Hill coefficient)” value in assay [2] (isoform 1a) and in assay [3] (isoform 1a) was 1.4 in each case. Further, the maximal inhibition in assay [2] (isoform 1a) is ~ 65%; in assay [3] (isoform 1a) it was ~ 95%.

Consider `Cc1ccc2[nH]c(=O)c(C3=NN(C(=O)CCC(=O)O)C(c4ccc(Br)cc4)C3)c(-c3ccccc3)c2c1` (centres unmarked) [DQP-1105], for which the “Relative Imin” value in assay [5] (setting [6]) is given as −3 ± 1%; in assay [2] (isoform 1a), −8 ± 2 %; in assay [3] (at 30 μM, isoform 1a), 58 ± 2%. The “nH (Hill coefficient)” value came to 1.0 in assay [5] (isoform 1a) and 0.8 in assay [2] (isoform 1a). Also, the maximal inhibition in assay [5] (isoform 1a) and in assay [2] (isoform 1a) was ~ 100% throughout. The IC50 in assay [5] (setting [7]) turned out to be 2.2 ± 0.1 µM; in assay [2] (setting [7]) it was 13 ± 1 µM.

On to `Cc1nccn1Cc1cc(-c2ccc(F)c(C(F)F)c2)cnn1.Cl.Cl` [EVT-101], for which the “Relative Imin” value in assay [5] (at 3 μM, isoform 1a) came out at 92 ± 2%; in assay [2] (isoform 1a) it was 37 ± 2 %; in assay [3] (setting [6]) it was 3 ± 1%. Also, the “nH (Hill coefficient)” value stood at 1.1 in assay [2] (isoform 1a) and 1.0 in assay [3] (isoform 1a). Further, the maximal inhibition is ~ 65% in assay [2] (isoform 1a) and ~ 95% in assay [3] (isoform 1a). The IC50 stood at 0.012 ± 0.001 µM in assay [2] (setting [7]) and 0.009 ± 0.001 µM in assay [3] (setting [7]).

As for `Cc1ncc(CNC(=O)c2cnc(CNS(=O)(=O)c3ccc(F)c(Cl)c3)cn2)s1` [MPX-004], in assay [1], the “NMDAR-EPSC peak amplitude, % of baseline” value is reported as 45 ± 2 % of baseline and the “effect on EPSC decay time” value is “significantly slowed”. The “NMDAR-EPSC peak amplitude, % of baseline” value in assay [4] is on record as 98 ± 5 % of baseline.

Regarding `[Mg+2]` [Mg^2+], the IC50 was 937 ± 85.9 µM in assay [5] (setting [8]); 254 µM in assay [5] (setting [9]); 72.5 ± 1.8 µM in assay [5] (setting [10]); 25.1 ± 0.4 µM in assay [5] (setting [11]); 518 ± 14.3 µM in assay [2] (setting [8]); 80 µM and 79.2 µM in assay [2] (setting [9]). The IC50 in assay [2] (setting [10]) is 19.9 ± 0.8 µM; in assay [2] (setting [11]), 6.8 ± 0.5 µM; in assay [3] (setting [8]) it was 161 ± 11.8 µM; in assay [3] (setting [9]) it was 26 µM and 25.5 µM; in assay [3] (setting [10]) it was 5.5 ± 0.4 µM; in assay [3] (setting [11]), 1.6 ± 0.3 µM. Moreover, the nH in assay [5] (setting [8]) is 1.0; in assay [5] (setting [9]), 1.0; in assay [5] (setting [10]), 1.0; in assay [5] (setting [11]), 1.0; in assay [2] (setting [8]), 0.8; in assay [2] (setting [9]), 0.9. Moreover, the nH in assay [2] (setting [10]) was 0.9; in assay [2] (setting [11]), 0.9; in assay [3] (setting [8]), 0.9; in assay [3] (setting [9]), 1.0; in assay [3] (setting [10]) it was 1.0; in assay [3] (setting [11]), 0.9. Further, the “δ, fraction of the membrane electric field sensed by the blocking site” value in assay [5] (Woodhull model, 0.1 mM Mg2+) was 0.82; in assay [2] (Woodhull model, 0.1 mM Mg2+), 0.95; in assay [3] (Woodhull model, 0.1 mM Mg2+) it was 1.08. Moreover, the “K0.5(0 mV), Mg2+ concentration producing half-maximal block at 0 mV” value in assay [5] (setting [12]) is 11 mM; in assay [2] (setting [12]), 6.6 mM; in assay [3] (setting [12]) it was 4.5 mM.

Consider `COc1ccc2nc(/C=C/c3cccc([N+](=O)[O-])c3)n(-c3ccc(C(=O)O)cc3)c(=O)c2c1` [QNZ-46], for which the “Relative Imin” value in assay [5] (setting [6]) was −3 ± 1%; in assay [2] (isoform 1a) it was 4 ± 1 %; in assay [3] (at 30 μM, isoform 1a), 76 ± 1%. Besides, the “nH (Hill coefficient)” value in assay [5] (isoform 1a) and in assay [2] (isoform 1a) was 1.0 each time. Further, the maximal inhibition in assay [5] (isoform 1a) and in assay [2] (isoform 1a) was ~ 100% in each case. Besides, the 50% inhibitory concentration (IC50) in assay [5] (setting [7]) stood at 2.7 ± 0.1 µM; in assay [2] (setting [7]), 10 ± 1 µM.

In the case of `CNC1(c2ccccc2Cl)CCCCC1=O` (centres unmarked) [ketamine], the IC50 worked out at 4.5 ± 0.5 µM in assay [5] (setting [13]); 3.8 ± 0.2 µM in assay [5] (setting [14]); 3.5 ± 0.5 µM in assay [5] (setting [15]); 2.4 ± 0.2 µM in assay [5] (setting [16]); 2.6 ± 0.4 µM in assay [5] (setting [17]); 1.3 ± 0.1 µM in assay [5] (setting [18]). Besides, the IC50 in assay [3] (setting [13]) was determined as 16.3 ± 1.9 µM; in assay [3] (setting [14]), 4.2 ± 0.7 µM; in assay [3] (setting [15]) it was 19.2 ± 2 µM; in assay [3] (setting [16]), 2.1 ± 0.3 µM; in assay [3] (setting [17]) it was 17 ± 2 µM; in assay [3] (setting [18]), 1 ± 0.1 µM. Further, the nH in assay [5] (setting [19]) turned out to be 1.0; in assay [5] (setting [20]), 1.0; in assay [5] (setting [21]), 1.0; in assay [5] (setting [22]), 1.0; in assay [5] (setting [23]), 1.1; in assay [5] (setting [24]), 1.0. The nH is 1.2 in assay [3] (setting [19]); 1.0 in assay [3] (setting [20]); 1.3 in assay [3] (setting [21]); 1.0 in assay [3] (setting [22]); 1.1 in assay [3] (setting [23]); 1.0 in assay [3] (setting [24]).

Turning to `CC12CC3CC(C)(C1)CC(N)(C3)C2` [memantine], the nH came to 1.0 in assay [5] (setting [19]); 1.1 in assay [5] (setting [20]); 1.0 in assay [5] (setting [21]); 1.1 in assay [5] (setting [22]); 1.0 in assay [5] (setting [23]); 1.1 in assay [5] (setting [24]). Moreover, the nH in assay [2] (setting [19]) was found to be 1.0; in assay [2] (setting [20]), 1.1; in assay [2] (setting [21]), 0.9; in assay [2] (setting [22]), 1.0; in assay [2] (setting [23]), 0.9; in assay [2] (setting [24]), 1.0. Besides, the nH was 1.1 in assay [3] (setting [19]); 0.9 in assay [3] (setting [20]); 1.0 in assay [3] (setting [21]); 1.0 in assay [3] (setting [22]); 1.1 in assay [3] (setting [23]); 1.0 in assay [3] (setting [24]).
